According to patent US10435400B2, “2,4-disubstituted phenylene-1,5-diamine derivatives and applications thereof, and pharmaceutical compositions and pharmaceutically acceptable compositions prepared therefrom” (SHANGHAI HAIYAN PHARMACEUTICAL TECHNOLOGY CO., LTD., priority 2014, dated 2019):
Where two headings read alike, the source gives them in different places.

Assays:
H1975 cells [1] = assay: Cytostatic activity by MTT method, H1975 cells; type: cell-based; settings: for IC50: Homo sapiens, read-out: H1975 cells (IC50/nM)
Protocol: MTT assay used the method well known to those skilled in the art, and the reagents used in the method can be commercially obtained. […] After rinsed for one time, 1.5 ml trypsin/EDTA was added to digest the adherent cells until the cells detached, and then 3.5 ml of medium was added to terminate the trypsinization. The digested cell suspension was transferred to a 15 ml falcon tube, and spun at 1300 rpm for 3 min, the supernatant was discarded, and cells were suspended in fresh medium. […] The plates were spun at 2000 rpm for 5 min.

NIH3T3 cells = assay: Cytotoxicity by MTT method, NIH3T3 cells; type: cell-based; settings: Mus musculus, read-out: NIH3T3 cells MTT assay (IC50/nM);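 further: cells grown in 96-well plates with compound for 72 h, then given MTT for a further 4 h at 37 °C under 5% CO2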
Protocol: After rinsed for one time, 1.5 ml trypsin/EDTA was added to digest the adherent cells until the cells detached, and then 3.5 ml of medium was added to terminate the trypsinization. The digested cell suspension was transferred to a 15 ml falcon tube, and spun at 1300 rpm for 3 min, the supernatant was discarded, and cells were suspended in fresh medium.
The cells were added into the incubator after addition of the test compound, and incubated for 72 h, 10 μl of 5 mg/ml MTT (Sigma, M5655) solution was added to each well of the plate, and incubated the 96-well plates at 37° C. 5% CO2 for 4 h in a incubator.
The plates were spun at 2000 rpm for 5 min.

H1975 cells [2] = assay: ELISA screening EGFR T790M inhibitor for cell activity, H1975 cells; type: cell-based; settings: for IC50: Homo sapiens, read-out: H1975 cells (IC50/nM)
A431 cells [3] = assay: ELISA cell activity, EGF-stimulated A431 cells; type: cell-based; settings: Homo sapiens;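 further: Serum-starved A431 cells pretreated with compound for 1 h, then stimulated with EGF for 45 min, lysates read by ELISA (OD450 minus OD570), EGF-only wells as control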
[4] = In vivo pharmacokinetic test in rats; settings: male, SD, rat, plasma; for clearance / half-life: IV 1 mg/kg; for clearance: read-out: Clearance CL; for half-life: read-out: Half-life T½ (converted); for bioavailability: oral gavage 20 mg/kg vs IV 1 mg/kg, read-out: Oral relative bioavailability F; for AUC / Cmax: route not given (IV 1 mg/kg, oral gavage 20 mg/kg); for AUC: read-out: Area under the curve AUC; for Cmax: read-out: Maximum plasma concentration Cmax
Source text: (§1) LC/MS/MS method was applied for the determination of the drug concentration in plasma at different times after the example compounds were orally and intravenously administered to rats or mice in order to study the pharmacokinetic behavior of the compounds of the invention in vivo in rats or mice and evaluate their pharmacokinetic characteristics.
(§2) Test Animals: healthy Adult male SD rats (weight 200-300 g, 6, fasted) or male CD1 mice (weight 20-30 g, 18, free access to water and food), provided by SLAC company;
(§3) Administration and Dosage: (1 mg/kg, 5 ml/kg, 5% DMAC (dimethylacetamide), 5% Solutol HS 15 (polyethylene glycol-15 hydroxystearate) and 90% saline was intravenously administered via foot dorsal vein and (20 mg/kg, 10 ml/kg, 0.5% CMC-Na solution) was administered via oral gavage to SD rats; (1 mg/kg, 5 ml/kg, 5% DMAC, 5% Solutol HS 15 and 90% Saline) was administered intravenously via tail vein and (5 mg/kg, 10 mL/kg, 0.5% CMC-Na aqueous solution) was administered via oral gavage to CD1 mice.
(§4) Blood collection: firstly, the animals which were selected to meet the test requirements prior to administration were weighed. The rats or mice were bound before the blood collection, blood from each administered rat was taken at predetermined time points (intravenous administration: blood was collected at 0.083, 0.25, 0.5, 1, 2, 4, 8, 24 h before and after administration respectively, 9 time points in total; gavage: blood was collected at 0.083, 0.25, 0.5, 1, 2, 4, 8, 24 h before and after administration respectively, 9 time points in total), about 150 μl of blood was collected via tail vein or heart (blood terminal). Blood from each administered mouse was taken blood at predetermined time points (tail vein: blood was collected at 0.083, 0.25, 0.5, 1, 2, 4, 8, 24 h, 8 time points in total; gavage: blood was collected at 0.25, 0.5, 1, 2, 4, 8, 24 h, 7 time points in total), about 150 μl of blood was collected via orbital or heart (blood terminal). Blood was transferred to a 1.5 ml tube to which K2EDTA was added previously. The collected blood sample was put on ice, and centrifuged to obtain plasma sample (2000 g, 5 min under 4° C.) within 15 minutes. All the plasma samples were stored at approximately −70° C. until analysis.
(§5) LC/MS/MS method was applied to determine the concentrations of the drug. At the same dose and administration, pharmacokinetic parameters of some example compounds of the invention in rats and mice were shown in Table 9: […]

[5] = In vivo pharmacokinetic test in mice; settings: male, CD1, mouse, plasma; for clearance / half-life: IV 1 mg/kg; for clearance: read-out: Clearance CL; for half-life: read-out: Half-life T½ (converted); for bioavailability: oral gavage 5 mg/kg vs IV 1 mg/kg, read-out: Oral relative bioavailability F; for AUC / Cmax: route not given (IV 1 mg/kg, oral gavage 5 mg/kg); for AUC: read-out: Area under the curve AUC; for Cmax: read-out: Maximum plasma concentration Cmax
Source text: as §1, §2, §3, §4, §5

A431 cells [6] = assay: Cytostatic activity by MTT method, A431 cells; settings: Homo sapiens, A-431, 72 h, read-out: A431 cells (IC50/nM);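 further: viability read by MTT reduction after compound exposure, with MTT incubated for a further 4 h at 37 °C under 5% CO2 in 96-well plates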
EGFR WT kinase = EGFR WT kinase (Homo sapiens (Human), UniProt P00533); assay: Wild type EGFR kinase inhibition test (z-lyte); type: biochemical; settings: 10 μM ATP
Sequence of EGFR WT kinase (P00533 25-1210): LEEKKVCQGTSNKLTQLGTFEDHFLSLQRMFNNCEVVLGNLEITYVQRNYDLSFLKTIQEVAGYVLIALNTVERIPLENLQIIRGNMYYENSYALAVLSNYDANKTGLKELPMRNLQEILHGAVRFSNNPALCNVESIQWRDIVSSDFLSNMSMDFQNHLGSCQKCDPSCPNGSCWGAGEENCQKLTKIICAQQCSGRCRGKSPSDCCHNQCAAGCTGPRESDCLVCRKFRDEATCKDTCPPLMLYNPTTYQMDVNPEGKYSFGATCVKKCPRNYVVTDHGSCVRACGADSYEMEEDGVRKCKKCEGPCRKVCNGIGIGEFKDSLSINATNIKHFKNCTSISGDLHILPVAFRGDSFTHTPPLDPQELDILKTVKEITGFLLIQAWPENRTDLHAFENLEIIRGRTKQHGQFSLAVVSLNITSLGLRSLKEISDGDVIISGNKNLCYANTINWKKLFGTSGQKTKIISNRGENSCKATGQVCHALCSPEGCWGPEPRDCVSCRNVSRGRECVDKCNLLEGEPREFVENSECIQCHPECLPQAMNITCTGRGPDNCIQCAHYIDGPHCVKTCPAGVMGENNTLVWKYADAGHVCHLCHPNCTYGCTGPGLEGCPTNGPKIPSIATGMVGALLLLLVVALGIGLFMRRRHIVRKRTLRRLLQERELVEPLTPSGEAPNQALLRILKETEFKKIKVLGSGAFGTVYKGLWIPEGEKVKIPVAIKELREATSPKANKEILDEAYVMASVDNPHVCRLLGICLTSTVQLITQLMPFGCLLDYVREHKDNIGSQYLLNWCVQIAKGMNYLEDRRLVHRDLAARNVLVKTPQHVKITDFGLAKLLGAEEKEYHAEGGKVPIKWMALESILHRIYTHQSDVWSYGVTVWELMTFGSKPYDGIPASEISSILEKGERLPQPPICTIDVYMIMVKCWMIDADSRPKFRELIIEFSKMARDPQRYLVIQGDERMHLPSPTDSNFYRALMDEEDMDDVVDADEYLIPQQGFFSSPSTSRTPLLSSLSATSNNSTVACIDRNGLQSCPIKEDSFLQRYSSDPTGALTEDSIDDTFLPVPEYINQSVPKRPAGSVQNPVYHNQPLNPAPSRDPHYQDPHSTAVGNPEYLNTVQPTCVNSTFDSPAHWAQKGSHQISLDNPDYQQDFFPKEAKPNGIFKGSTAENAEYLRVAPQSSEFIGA

[7] = tested on: T790M mutant cell line H1975; settings: background statement; almost no activity; cited from earlier work
[8] = NIH3T3, cytotoxicity, MTT, 72 h
[9] = A-431, ELISA, compound 1 h then EGF 45 minutes, read-out: A431 cells (IC50/nM)

Structure (SMILES)	IC50 (H1975 cells [1]; NCI-H1975, MTT, 72 h) [nM]	IC50 (NIH3T3 cells; [8]) [nM]	IC50 (H1975 cells [2]; NCI-H1975, ELISA, compound 1 h) [nM]	IC50 (A431 cells [3]; [9]) [nM]	clearance [4] [mL/min/kg]	half-life [4] [min]	bioavailability [4] [%]	AUC [4] [ng·h/mL]	Cmax [4] [ng/mL]	clearance [5] [mL/min/kg]	half-life [5] [min]	bioavailability [5] [%]	AUC [5] [ng·h/mL]	Cmax [5] [ng/mL]	IC50 (A431 cells [6]) [nM]	activity in T790M mutant cell line H1975 [7]	further results
C=CC(=O)Nc1cc(Nc2ncc(Cl)c(-c3cnn(C)c3)n2)c(OC)cc1N1CCC(N(C)C)CC1 [Compound Z-89, N-(5-(5-chloro-4-(1-methyl-1H-pyrazol-4-yl)pyrimidin-2-ylamino)-2-(4-(dimethylamino)piperidin-1-yl)-4-methoxyphenyl)acrylamide]	19	4040	15	4790	43.5	423	102	7190	437	47.7	266	59.7	1040	85.3	1730	–	–
C=CC(=O)Nc1cc(Nc2ncc(F)c(-c3cnn(C)c3)n2)c(OC)cc1N1CCC(N(C)C)CC1 [Compound Z-90, N-(2-(4-(dimethylamino)piperidin-1-yl)-5-(5-fluoro-4-(1-methyl-1H-pyrazol-4-yl)pyrimidin-2-ylamino)-4-methoxyphenyl)acrylamide]	17	> 10000	34	1690	43.9	421	92.6	6480	408	65.5	279	66.4	657	90.6	2390	–	IC50 (EGFR WT kinase): 102 nM; selective inhibitory activity against the cell growth [IC50 (A431 cells)/IC50 (H1975 cells)] (H1975 cells [1]; MTT, ratio of IC50 values): 140.6; Selective inhibitory activities of target on cellular level [IC50 (A431 cells)/IC50 (H1975 cells)] (H1975 cells [2]; ELISA, ratio of IC50 values): 50
C=CC(=O)Nc1cc(Nc2nccc(-c3cn(C)c4ccccc34)n2)c(OC)cc1N(C)CCN(C)C [comparative compound 1, reference compound]	–	–	–	–	–	497	18.5	–	–	–	119	30.2	–	–	[…]	–	IC50 (H1975 cells [1]; NCI-H1975, 72 h): 13 nM; IC50 (NIH3T3 cells; NIH3T3, 72 h): 3550 nM; IC50 (H1975 cells [2]; NCI-H1975, 1 h): 29 nM; IC50 (A431 cells [3]; A-431, read-out: A431 cells (IC50/nM)): […]
C#Cc1cccc(Nc2ncnc3cc(OCCOC)c(OCCOC)cc23)c1 [erlotinib]	–	–	–	–	–	–	–	–	–	–	–	–	–	–	–	greater than 3 uM	–
COc1cc2ncnc(Nc3ccc(F)c(Cl)c3)c2cc1OCCCN1CCOCC1 [gefitinib]	–	–	–	–	–	–	–	–	–	–	–	–	–	–	–	greater than 3 uM	–
